{
  "source": "paper PMC7809260",
  "about": "(Scientific Reports, 2021)",
  "key": {"JumpIn-DAT cells [1]": {"system": "JumpIn-DAT cells", "experiment": "Effect of pretreatment alone on impedance, dox-treated JumpIn-DAT cells (xCELLigence)", "format": "cell-based, human", "details": "10 µM, 1 h"}, "[2]": {"molecular_target": "human dopamine transporter (DAT) (Homo sapiens, UniProt Q01959)", "sequence (Q01959 whole entry)": "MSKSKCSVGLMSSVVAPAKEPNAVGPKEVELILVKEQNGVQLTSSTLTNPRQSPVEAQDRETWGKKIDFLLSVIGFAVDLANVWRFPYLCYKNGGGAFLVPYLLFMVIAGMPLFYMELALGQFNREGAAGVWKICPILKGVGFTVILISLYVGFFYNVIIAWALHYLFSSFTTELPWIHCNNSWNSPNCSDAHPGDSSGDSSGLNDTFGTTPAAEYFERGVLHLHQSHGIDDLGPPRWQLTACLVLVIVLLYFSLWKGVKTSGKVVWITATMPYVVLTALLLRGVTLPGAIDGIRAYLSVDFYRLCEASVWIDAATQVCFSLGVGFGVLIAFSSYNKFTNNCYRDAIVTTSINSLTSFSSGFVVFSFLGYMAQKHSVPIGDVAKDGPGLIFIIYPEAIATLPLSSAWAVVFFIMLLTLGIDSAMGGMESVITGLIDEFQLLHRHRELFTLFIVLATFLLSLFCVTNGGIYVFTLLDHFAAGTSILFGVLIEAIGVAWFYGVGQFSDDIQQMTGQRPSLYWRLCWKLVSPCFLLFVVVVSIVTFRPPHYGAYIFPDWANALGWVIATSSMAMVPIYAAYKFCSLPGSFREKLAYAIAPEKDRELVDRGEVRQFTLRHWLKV", "experiment": "TRACT assay, DAT inhibition in JumpIn-DAT cells (+dox)", "details": "dox-treated JumpIn-DAT cells, 10 µM inhibitor compared to vehicle-pretreated cells"}, "JumpIn-DAT cells [3]": {"system": "JumpIn-DAT cells", "experiment": "cells", "details": "Homo sapiens"}, "DAT [4]": {"system": "DAT", "details": "cited from earlier work"}, "DAT [5]": {"system": "DAT", "details": "cited from earlier work", "remark": "listed apart in the source"}, "U2OS-DAT cells [6]": {"system": "U2OS-DAT cells", "experiment": "Effect of pretreatment alone on impedance, U2OS-DAT cells (xCELLigence)", "format": "cell-based, human", "details": "10 µM, 1 h incubation"}, "U2OS-DAT cells [7]": {"system": "U2OS-DAT cells", "experiment": "GPCR antagonist experiment, dopamine-induced cell response in U2OS-DAT cells (xCELLigence)", "format": "cell-based, human", "details": "1 µM antagonist 1 h, then 10 µM dopamine", "procedure": "Impedance was measured overnight every 15 min."}, "[8]": {"system": "non-transfected U2OS cells", "experiment": "GPCR antagonist experiment, dopamine-induced response in non-transfected U2OS cells (xCELLigence)", "format": "cell-based, human", "details": "1 µM antagonist 1 h, then 316 nM dopamine", "procedure": "Figure S1. Representative vehicle-corrected xCELLigence traces of GPCR antagonists in three cell lines. (a) Pretreatment of U2OS-DAT cells with 1 µM antagonist for 1 h. (b) […]\nvehicle, 1 µM SCH23390 or raclopride for 1 h. ( c) Pretreatment of JumpIn-DAT cells in the (1 picture or pasted object on this page, not shown here)"}, "JumpIn-DAT cells [9]": {"system": "JumpIn-DAT cells", "experiment": "GPCR antagonist experiment, dopamine response in dox-treated JumpIn-DAT cells (xCELLigence)", "format": "cell-based, human", "details": "1 µM antagonist 1 h, then 31.6 µM dopamine"}, "DAT [10]": {"molecular_target": "T1, DAT (Homo sapiens, UniProt Q01959)", "T1 construct": "host or cells: U2OS, transient PEI transfection of pcDNA3.1(+)-DAT; whole cells or membranes", "T1 sequence (Q01959 whole entry)": "as above", "experiment": "[3H]WIN35,428 saturation binding assay"}},
  "note": "Where a name gives a salt, the structure may show the parent alone. Read-outs that look alike come from different tables or passages of the source.",
  "data": [
    {"compound": "COC(=O)[C@H]1[C@@H](OC(=O)c2ccccc2)C[C@@H]2CC[C@H]1N2C.Cl", "note": "[Cocaine, Cocaine hydrochloride]", "values": [
      {"measurement": "effect of pretreatment on its own on impedance", "setting": "JumpIn-DAT cells [1]", "result": "did not substantially affect impedance over time"},
      {"measurement": "enhancement of the apparent potency of dopamine by DAT inhibitor", "setting": "[2]", "result": "threefold"}
    ]},
    {"compound": "NCCc1ccc(O)c(O)c1", "note": "[Dopamine, dopamine hydrochloride]", "values": [
      {"measurement": "EC50", "setting": "JumpIn-DAT cells [3]; 0.5 h, read-out: pEC50 ± SEM (apparent potency of dopamine), JumpIn-DAT –dox (converted), fixed pseudo-Hill slope of 1, net AUC first 30 min", "result": 7.94, "unit": "µM"},
      {"measurement": "EC50", "setting": "JumpIn-DAT cells [3]; read-out: EC50 in µM, JumpIn-DAT +dox pretreated 1 h with 10 µM GBR12909, fixed pseudo-Hill slope of 1", "result": 26, "unit": "µM"},
      {"measurement": "EC50", "setting": "JumpIn-DAT cells [3]; read-out: EC50 in µM, JumpIn-DAT +dox pretreated 1 h with 10 µM cocaine, fixed pseudo-Hill slope of 1", "result": 13, "unit": "µM"},
      {"measurement": "EC50", "setting": "JumpIn-DAT cells [3]; read-out: EC50 in µM, JumpIn-DAT –dox, fixed pseudo-Hill slope of 1", "result": 8, "unit": "µM"},
      {"measurement": "EC50", "setting": "JumpIn-DAT cells [3]; read-out: pEC50 ± SEM (apparent potency of dopamine), JumpIn-DAT +dox (1 µg/ml), vehicle-pretreated (converted), fixed pseudo-Hill slope of 1", "result": 50.1, "unit": "µM"},
      {"measurement": "EC50", "setting": "JumpIn-DAT cells [3]; read-out: pEC50 ± SEM (apparent potency of dopamine), JumpIn-DAT +dox pretreated 1 h with 10 µM GBR12909 (converted), fixed pseudo-Hill slope of 1", "result": 25.1, "unit": "µM"},
      {"measurement": "EC50", "setting": "JumpIn-DAT cells [3]; read-out: pEC50 ± SEM (apparent potency of dopamine), JumpIn-DAT +dox pretreated 1 h with 10 µM cocaine (converted), fixed pseudo-Hill slope of 1", "result": 12.6, "unit": "µM"},
      {"measurement": "EC50", "setting": "JumpIn-DAT cells [3]; read-out: pEC50 ± SEM (variable slope), JumpIn-DAT +dox (converted), variable slope model", "result": 31.6, "unit": "µM"},
      {"measurement": "EC50", "setting": "JumpIn-DAT cells [3]; read-out: pEC50 ± SEM (variable slope), JumpIn-DAT +dox + 10 µM GBR12909 (converted), variable slope model", "result": 31.6, "unit": "µM"},
      {"measurement": "EC50", "setting": "JumpIn-DAT cells [3]; read-out: pEC50 ± SEM (variable slope), JumpIn-DAT +dox + 10 µM cocaine (converted), variable slope model", "result": 20, "unit": "µM"}
    ]},
    {"compound": "Cl.Cl.Fc1ccc(C(OCCN2CCN(CCCc3ccccc3)CC2)c2ccc(F)cc2)cc1", "note": "[GBR12909, GBR12909 dihydrochloride]", "values": [
      {"measurement": "effect of pretreatment on its own on impedance", "setting": "JumpIn-DAT cells [1]", "result": "did not substantially affect impedance over time"},
      {"measurement": "affinity for DAT", "setting": "DAT [4]", "result": "low nanomolar"},
      {"measurement": "enhancement of the apparent potency of dopamine by DAT inhibitor", "setting": "[2]", "result": "twofold"},
      {"measurement": "pIC50, MPP+-induced toxicity inhibition", "setting": "DAT [5]", "result": 7.0},
      {"measurement": "effect of pretreatment itself on impedance", "setting": "U2OS-DAT cells [6]", "result": "did not substantially affect impedance"}
    ]},
    {"compound": "CN1CCc2cc(Cl)c(O)cc2[C@@H](c2ccccc2)C1", "note": "[SCH23390, SCH23390 hydrochloride]", "values": [
      {"measurement": "effect on dopamine-induced cell response", "setting": "U2OS-DAT cells [7]", "result": "completely abolish"},
      {"measurement": "effect on dopamine-induced response", "setting": "[8]", "result": "eliminated the dopamine-induced response"},
      {"measurement": "effect on dopamine response", "setting": "JumpIn-DAT cells [9]", "result": "not affected"}
    ]},
    {"compound": "[3H]CN1[C@H]2CC[C@@H]1[C@@H](C(=O)OC)[C@@H](c1ccc(F)cc1)C2", "note": "[[^3H]WIN35,428, [^3H]-2β-carbomethoxy-3β-(4-fluorophenyl)-tropane]", "values": [
      {"measurement": "Bmax (total amount of binding sites)", "setting": "DAT [10]; U2OS-DAT membranes", "result": "1.6 ± 0.2", "unit": "pmol/mg protein"},
      {"measurement": "specific binding", "setting": "DAT [10]; U2OS-mock membranes", "result": "No specific binding"}
    ]},
    {"compound": "CCN1CCC[C@H]1CNC(=O)c1c(O)c(Cl)cc(Cl)c1OC", "note": "[raclopride]", "values": [
      {"measurement": "effect on dopamine-induced response", "setting": "[8]", "result": "not"}
    ]},
    {"compound": "COC(=O)[C@@H]1[C@H]2C[C@H]3c4[nH]c5ccccc5c4CCN3C[C@@H]2CC[C@@H]1O", "note": "[yohimbine, Yohimbine hydrochloride]", "values": [
      {"measurement": "effect on dopamine response", "setting": "JumpIn-DAT cells [9]", "result": "significantly reduced"}
    ]}
  ]
}
